# Where “and” joins values, the source holds several entries; their conditions need not be identical. Identical values can stand only once. Like-named read-outs stand apart in the source and are kept apart here. Marks after values point to notes of the source that are not given here.
# Experiments:
# [1] = tested on: rat T-cell line specific to MTB; assay: Antigen-stimulated proliferation of MTB-specific T-cell line (3H-thymidine incorporation); assay type: cell-based; conditions: for counts relative to vehicle control / effect on T-cell proliferation: 100 μM
# [2] = Solubility of the peptides in stock solutions; assay type: physicochemical; conditions: for appearance of peptide stock solution: stock solutions 1 mg/ml or 1 mM
# Protocol: The solubility of the peptides was variable. At the concentration of the stock solutions, 1 mg/ml or 1 mM, most peptide solutions looked clear. […] Therefore, the true concentration of peptides in solution in the culture wells would be less than those nominated in the case of these partially soluble peptides. Core peptide could be dissolved at 2 mg/ml, but was not completely soluble at 5 mg/ml. […] The vehicle for the peptides, except M and N, was 0.1% acetic acid which gave 0.01%, i.e., 1.75 mM in the wells. […] In these experiments, effects of peptides could still be determined by comparison with the vehicle control. The 0.05M sodium carbonate buffer, used to dissolve peptides M and N, was not as detrimental to line T-cells as acetic acid.
# [3] = tested on: rat primed lymph node cells (PLNC); conditions: for effect on antigen-stimulated T-cell proliferation: PLNC Experiment 2, FIG. 3, peptides alone and in combination; for inhibition of antigen-stimulated T-cell proliferation, overall statement: PLNCs and T-cell lines, summary over experiments
# [4] = tested on: adjuvant induced arthritis in rats; assay: Adjuvant-induced arthritis in rats; assay type: in vivo, rat; conditions: for Summary of in vivo adjuvant induced arthritis results: TREATMENT: 7 mg peptide with 1 mg MTB, rats with arthritis/rats in group; for efficacy against MTB-induced arthritis: section (ii); for efficacy against MTB-induced arthritis / rats showing no symptoms of arthritis / rats with mild disease / minor symptoms: 7 mg peptide; for effectiveness in adjuvant induced arthritis model, summary statement: summary of Table 4; for rats showing no symptoms of arthritis: duration of the experiment
# [5] = T-Cell Line Experiment 2, FIG. 5
# [6] = PLNC Experiment 1, FIG. 2, peptide 100 μg/ml
# [7] = peptides 7 mg/rat, CS 50 mg/kg, DXM 2 mg/kg
# [8] = respective buffers (0.1% acetic acid; 0.05M sodium carbonate for M and N)
# [9] = section (iii), 5 rats per group
# [10] = section (i), summary of Table 3 experiments
compound,measurement,setting,value
"H-LRILLLGV-OH [Peptide H, L R I L L L G V]",counts relative to vehicle control,[1]; [5],66%
same,appearance of peptide stock solution,[2],turbid or had undissolved particles
same,effect on T-cell proliferation,[3]; [6],appeared to reduce T-cell proliferation
same,EFFECT on adjuvant induced arthritis,[4]; [7],Protective
"H-SSDVPCDATLT-OH [K, S S D V P C D A T L T]",solubility in words,[2]; [8],soluble in their respective buffers
same,Summary of in vivo adjuvant induced arthritis results: TREATMENT,[4],5/10
same,efficacy against MTB-induced arthritis,[4],comparable in efficacy
same,"effectiveness in adjuvant induced arthritis model, summary statement",[4],variable response in the delay of disease induction and severity
"H-LGILLLKV-OH [I, L G I L L L K V]",appearance of peptide stock solution,[2],turbid or had undissolved particles
same,EFFECT on adjuvant induced arthritis,[4]; [7],Protective
"H-FLFAEIVSI-OH [Peptide N, F L F A E I V S I]",effect on T-cell proliferation,[1]; [5],no effects
same,solubility in words,[2]; [8],soluble in their respective buffers
same,effect on antigen-stimulated T-cell proliferation,[3],did not reduce proliferation
same,Summary of in vivo adjuvant induced arthritis results: TREATMENT,[4],0/5*
same,protection,[4]; section (iii),protective to a variable extent
same,rats showing no symptoms of arthritis,[4]; [9],All five
same,"effectiveness in adjuvant induced arthritis model, summary statement",[4],very effective
"H-ILLLKVAG-OH [B, I L L L K V A G]",EFFECT on adjuvant induced arthritis,[4]; [7],Protective
same,EFFECT on adjuvant induced arthritis,[4]; [10],Best results
"H-LLMTLRLWSS-OH [Peptide P, L L M T L R L W S S]",effect on T-cell proliferation,[1]; [5],marginal effect
same,appearance of peptide stock solution,[2],turbid or had undissolved particles
same,effect on T-cell proliferation,[3]; [6],most inhibitory
same,effect on antigen-stimulated T-cell proliferation,[3],showed activity
same,Summary of in vivo adjuvant induced arthritis results: TREATMENT,[4],0/5
same,rats that developed minor symptoms,"[4]; Table 4, of 5 treated rats",(4 developed minor symptoms)
same,protection,[4]; section (iii),protective to a variable extent
same,rats with mild disease / minor symptoms,[4]; [9],four
same,rats showing no symptoms of arthritis,[4]; [9],one
same,"effectiveness in adjuvant induced arthritis model, summary statement",[4],variable response in the delay of disease induction and severity
"H-YGRADCGITS-OH [Peptide J, Y G R A D G G I T S]",Summary of in vivo adjuvant induced arthritis results: TREATMENT,[4],3/10*
same,efficacy against MTB-induced arthritis,[4],comparable in efficacy
same,"effectiveness in adjuvant induced arthritis model, summary statement",[4],very effective
"H-LDILLLEV-OH [E, L D I L L L E V]",EFFECT on adjuvant induced arthritis,[4]; [7],No effect
same,EFFECT on adjuvant induced arthritis,[4]; [10],no effect
"H-IIVTDVIATL-OH [Peptide M, I I V T D V I A T L]",effect on T-cell proliferation,[1]; [5],no effects
same,solubility in words,[2],soluble in their respective buffers
same,effect on antigen-stimulated T-cell proliferation,[3],did not reduce proliferation
same,Summary of in vivo adjuvant induced arthritis results: TREATMENT,[4],2/5
same,protection,[4]; section (iii),protective to a variable extent
same,rats with mild disease / minor symptoms,[4]; [9],Two
same,rats showing no symptoms of arthritis,[4]; [9],One
same,rats of the group killed,"[4]; section (iii), 5 rats per group, on days 19 and 21",2
same,"effectiveness in adjuvant induced arthritis model, summary statement",[4],variable response in the delay of disease induction and severity
"C[C@@H]1C[C@H]2[C@@H]3CCC4=CC(=O)C=C[C@]4(C)[C@@]3(F)[C@@H](O)C[C@]2(C)[C@@]1(O)C(=O)CO [DXM*, dexamethasone, reference compound]",EFFECT on adjuvant induced arthritis,[4]; [7],No effect+
"H-IVIVDICIT-OH [Peptide L, I V I V D I C I T]",Summary of in vivo adjuvant induced arthritis results: TREATMENT,[4],0/5*
same,weight loss,"[4]; section (iv), FIG. 10, 7 mg peptide L, five rats",none of the peptide L treated group lost weight
same,paw and ankle thickness,"[4]; section (iv), FIG. 11(a–d), 7 mg peptide L",significantly decreased compared to control
same,"effectiveness in adjuvant induced arthritis model, summary statement",[4],very effective
"H-AGFNLLMT-OH [Peptide O, A G F N L L M T]",appearance of peptide stock solution,[2],turbid or had undissolved particles
same,Summary of in vivo adjuvant induced arthritis results: TREATMENT,[4],1/10*
same,efficacy against MTB-induced arthritis,[4],most effective at ameliorating the development of MTB-induced arthritis
same,"effectiveness in adjuvant induced arthritis model, summary statement",[4],very effective
"H-LGILLLGV-OH [C, L G I L L L G V]",EFFECT on adjuvant induced arthritis,[4]; [7],No effect
same,EFFECT on adjuvant induced arthritis,[4]; [10],no effect
"H-MGLRILLL-OH [Peptide A, M G L R I L L L]",EFFECT on adjuvant induced arthritis,[4]; [7],Protective
"H-GLRILLLKV-OH [CP, G L R I L L L K V]",counts (tritiated thymidine incorporation),"[1]; T-Cell Line Experiment 1, FIG. 4, 100 μg/ml, vehicle control approximately 30000",approximately 18000 cpm
same,counts relative to the control level,"[1]; T-Cell Line Experiment 1, FIG. 4, 200 μg/ml",about 25%
same,counts relative to vehicle control,[1]; [5],approximately 33%
same,counts relative to the control,"[1]; T-Cell Line Experiment 2, FIG. 5, 200 μM",~16%
same,degree of inhibition of antigen-stimulated T-cell proliferation,[3],50-9096%
same,inhibition at different concentrations in the wells,"[3]; 20 μl of 1, 2 or 5 mg/ml stock added to the wells (0.1, 0.2, 0.5 mg/ml)",0.2 mg/ml CP was more inhibitory than 0.1 mg/ml and 0.5 mg/ml was less effective
same,counts relative to the vehicle control (T-cell proliferation),"[3]; PLNC Experiment 1, FIG. 2, peptide 100 μg/ml, MTB 100 μg/ml",approximately 10%
same,effect on antigen-stimulated T-cell proliferation,[3],"reduced antigen-stimulated T-cell proliferation, whether freshly dissolved or stored for more than three months at 4 °C"
same,"inhibition of antigen-stimulated T-cell proliferation, overall statement",[3],most effective
same,"inhibition of antigen-stimulated T-cell proliferation, overall statement",[3]; listed as core peptide,effective at inhibiting antigen-stimulated T-cell proliferation
same,proliferation reduced by,[3]; first experiment,go
same,animals with no evidence of arthritis,"[4]; first experiment, three rats per group, after 18 days, suspended in adjuvant, base of tail",2/3
same,EFFECT on adjuvant induced arthritis,[4]; [7],Protective
same,EFFECT on adjuvant induced arthritis,[4]; [10],Best results
